Values belong to the molecule of their own block, whether it stands above or below them.
What was measured:
human ASIC3 = biological target: T1, human ASIC3 (Homo sapiens, UniProt Q9UHC3); test: In vitro assay for ASIC activity, whole-cell patch clamp, hASIC3 cell line; format: cell-based; settings: for inhibition at 10 µM: percent inhibition vs. baseline current, read-out: levels of inhibition of acid-evoked ASIC current; for block of inward current evoked by pH5.5 in the hASIC3 cell line: pre-application of 10 μM; for inhibition of human ASIC3 current with increasing concentrations (FIG. 1): increasing concentrations of compound; for inhibition of inward current evoked by pH5.5 in the hASIC3 cell line: pre-application of 300 nM
T1 construct: expressed in transfected cells; host or cells: HEK293
T1 sequence (Q9UHC3 1-531): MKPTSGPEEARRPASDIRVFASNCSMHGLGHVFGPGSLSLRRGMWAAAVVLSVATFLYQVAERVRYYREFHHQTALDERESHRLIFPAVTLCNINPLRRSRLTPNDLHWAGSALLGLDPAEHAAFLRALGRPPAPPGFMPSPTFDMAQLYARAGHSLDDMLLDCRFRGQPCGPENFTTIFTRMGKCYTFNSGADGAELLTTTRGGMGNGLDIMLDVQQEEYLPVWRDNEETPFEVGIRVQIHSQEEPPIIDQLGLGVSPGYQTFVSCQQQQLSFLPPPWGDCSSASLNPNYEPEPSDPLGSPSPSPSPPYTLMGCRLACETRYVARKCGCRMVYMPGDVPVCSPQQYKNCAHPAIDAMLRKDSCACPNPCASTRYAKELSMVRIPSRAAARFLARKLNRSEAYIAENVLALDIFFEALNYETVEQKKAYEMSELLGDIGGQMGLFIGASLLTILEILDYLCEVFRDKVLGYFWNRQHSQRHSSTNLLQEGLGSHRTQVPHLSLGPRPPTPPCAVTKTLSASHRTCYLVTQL
Protocol: (§1) Cell Preparation: Human embryonic kidney cells (HEK293) stably expressing the human ASIC ion channel, are grown to 70-90% confluence in T75 cell culture flasks. Cells are lifted by removing the growth media and incubating with 3 ml of warmed (37° C.) 50/50 Trypsin/Dulbecco's Solution (GIBCO, USA) for 4-6 minutes. 7 ml of pH7.4_HBS (see Solutions and Drugs) is then added to block Trypsin activity. The cell suspension is placed into a 10 ml centrifuge tube and centrifuged for 1 minute @ 150×G. After centrifugation, the supernatant is aspirated and the cell pellet is re-suspended in 2-5 ml of pH7.4_HBS for a final cell density of ˜0.6×10^6 cells/ml. For whole-cell patch clamp, approximately 1000 cells are placed in a recording chamber containing standard bath solution for electrophysiological recording.
Solutions and Drugs: The intracellular solution contains (mM): 119 K-gluconate, 15 KCl, 3.2 MgCl2, 5 EGTA, 5 HEPES, 5 K2ATP, pH 7.3. The standard bath solution (pH7.4_HBS) contains (mM): 150 NaCl, 5 KCl, 2 CaCl2, 1 MgCl2, 10 HEPES, 12 Dextrose, pH 7.4. The acid-activation bath solution (pH5.5_MBS) contains (mM): 150 NaCl, 5 KCl, 2 CaCl2, 1 MgCl2, 10 MES, 12 Dextrose, pH 5.5. Test compounds were prepared as 2 or 10 mM stock solutions in DMSO and diluted in either pH7.4_HBS or pH5.5_MBS to final concentration.
Electrophysiological recording: Patch clamp recording pipettes were pulled from borosilicate glass and typically had 2-4 MOhm resistances. Whole cell currents were recorded with a patch clamp amplifier (Multiclamp 700B, Axon Instruments Inc). Holding and test potential was −60 mV. Control and compound solutions perfused the vicinity of the cell with flow controlled by computer-operated solenoid valves. 10-90% solution exchange typically took <20 ms. After establishment of whole cell configuration, cells were perfused with pH7.4_HBS. Baseline ASIC current was determined by application of pH5.5_MBS at two minute intervals. After a stable ASIC current was determined, inhibition of acid evoked current was determined by multiple applications of increasing concentrations (3-fold dilution) of compound. Inhibition of current was expressed as percent inhibition vs. baseline current. A minimum of three independent determinations at each concentration of compound was used for each data point. IC50s were determined using the Hill Equation.

ASIC = settings: cited from earlier work; for inhibition of ASIC current: Psalmotoxin-1 selective for ASIC1, APETx2 selective for ASIC3
human ASIC1 = biological target: T2, human ASIC1 (Homo sapiens, UniProt P78348); test: In vitro assay for ASIC activity, whole-cell patch clamp, hASIC1 cell line; format: cell-based
T2 construct: expressed in transfected cells; host or cells: HEK293
T2 sequence (P78348 1-528): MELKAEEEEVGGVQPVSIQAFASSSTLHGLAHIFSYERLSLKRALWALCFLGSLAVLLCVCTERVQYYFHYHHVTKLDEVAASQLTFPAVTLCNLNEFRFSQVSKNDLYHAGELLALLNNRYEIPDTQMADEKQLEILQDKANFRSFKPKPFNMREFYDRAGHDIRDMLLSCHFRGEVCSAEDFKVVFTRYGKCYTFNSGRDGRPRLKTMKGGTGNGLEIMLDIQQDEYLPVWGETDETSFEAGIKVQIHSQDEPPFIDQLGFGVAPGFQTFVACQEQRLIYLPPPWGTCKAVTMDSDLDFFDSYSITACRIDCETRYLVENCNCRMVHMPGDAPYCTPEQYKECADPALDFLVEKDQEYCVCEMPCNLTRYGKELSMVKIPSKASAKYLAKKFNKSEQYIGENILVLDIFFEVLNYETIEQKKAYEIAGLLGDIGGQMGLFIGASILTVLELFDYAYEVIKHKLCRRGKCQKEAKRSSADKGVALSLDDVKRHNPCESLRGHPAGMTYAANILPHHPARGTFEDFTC
Protocol: as §1, with “recording. […]” for “recording.”
Electrophysiological recording: Patch clamp recording pipettes were pulled from borosilicate glass and typically had 2-4 MOhm resistances. Whole cell currents were recorded with a patch clamp amplifier (Multiclamp 700B, Axon Instruments Inc). […] After a stable ASIC current was determined, inhibition of acid evoked current was determined by multiple applications of increasing concentrations (3-fold dilution) of compound. Inhibition of current was expressed as percent inhibition vs. baseline current. […] IC50s were determined using the Hill Equation.

Molecule: N=C(Nc1ccccc1)c1ccc2[nH]c(-c3cc(Cl)cc(Cl)c3)cc2c1 [compound 21, 2-(3,5-dichlorophenyl)-N-phenyl-1H-indole-5-carboximidamide]
inhibition at 10 µM (human ASIC3): > 20%

Molecule: Psalmotoxin-1 (EDCIPKWKGCVNRHGDCCEGLECWKRRRSFEVCVPKTPKT; Pi-theraphotoxin-Pc1a; UniProt P60514 1-40, looked up)
inhibition of ASIC current (ASIC): inhibit ASIC current at nM concentrations

Molecule: CC(C)C1c2cc(C3CC3c3ccc4cc(C(=N)N)ccc4c3)ccc2CCN1C (stereo not shown) [A-317567]
increase in potency vs. amiloride (ASIC; in vivo and in vitro assays): > 10 fold

Molecule: APETx2
inhibition of ASIC current (ASIC): inhibit ASIC current at nM concentrations

Molecule: N=C(N)c1ccc2[nH]c(-c3cc(Cl)cc(Cl)c3)cc2c1 [EXAMPLE 1, 2-(3,5-Dichlorophenyl)-1H-indole-5-carboximidamide]
inhibition of proton-evoked current in HEK cells expressing human ASIC3 (FIG. 2) (human ASIC3; HEK cells, human ASIC3): inhibits proton-evoked current | inhibition at 10 µM (human ASIC3): > 20% | inhibition of human ASIC3 current with increasing concentrations (FIG. 1) (human ASIC3): dose dependent inhibition | inhibition of inward current evoked by pH5.5 in the hASIC3 cell line (human ASIC3): inhibits the majority of the proton-evoked current | inhibition of proton-evoked current in HEK cells expressing human ASIC1 (FIG. 2) (human ASIC1; HEK cells, human ASIC1): inhibits proton-evoked current | inhibition of inward current evoked by pH6.5 in the hASIC1 cell line (human ASIC1; pre-application of 300 nM, pH6.5): inhibits a large fraction of this current

Second part, the molecule after the results:

block of inward current evoked by pH5.5 in the hASIC3 cell line (human ASIC3): did not block the proton-evoked current
Molecule: N=C(N)c1ccc2[nH]c(-c3cccc(CO)c3)cc2c1 [EXAMPLE 2]

inhibition of human ASIC3 current with increasing concentrations (FIG. 1) (human ASIC3): dose dependent inhibition | inhibition of inward current evoked by pH5.5 in the hASIC3 cell line (human ASIC3): inhibited the proton-evoked current
Molecule: N=C(N)c1ccc2[nH]c(-c3cc(Br)cc(Br)c3)cc2c1 [EXAMPLE 4]

inhibition at 10 µM (human ASIC3): > 20%
Molecule: NCc1ccc2[nH]c(-c3cc(Cl)nc(Cl)c3)cc2c1 [compound 50, 1-[2-(2,6-Dichloropyridin-4-yl)-1H-indol-5-yl]methanamine]

block of inward current evoked by pH5.5 in the hASIC3 cell line (human ASIC3): blocked the proton-evoked current
Molecule: N=C(N)c1ccc2[nH]c(-c3cc(Cl)cc(Br)c3)cc2c1 [EXAMPLE 3]

inhibition at 10 µM (human ASIC3): > 20%
Molecule: NCc1ccc2[nH]c(-c3ccccc3)c(CN)c2c1 [compound 28, (2-Phenyl-1H-indole-3,5-diyl)dimethanamine]
